Experimental data published in patent publication EP4707280A1, “1,4-CINEOLE DERIVATIVE AND INTERMEDIATE THEREOF, HERBICIDE CONTAINING SAID DERIVATIVE AS ACTIVE INGREDIENT, METHOD FOR USING HERBICIDE, AND METHOD FOR PREPARING AGROCHEMICAL COMPOSITION” (HOKKO CHEMICAL INDUSTRY CO., LTD., priority 2023, dated 2024).

Experiments:
Assay type in all cases: in vivo
[1] = system: Echinochloa crus-galli var. formosensis; experiment: Test Example 5: herbicidal effect test by soil application in paddy rice (low dose); details: Echinochloa crus-galli, soil, 336 h; 7.5 g per 10 ares; applied immediately after sowing, flooded pots; 14 days after application; read-out: weed inhibition rate
Summary of the method: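 Dose of 7.5 g a.i. per 10 ares, applied by dropper as diluted emulsifiable concentrate to flooded (~3 cm) paddy pots immediately after sowing seeds at 0–1 cm. Kept in a glass greenhouse; duplicate pots rated at 14 days post-application.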

[2] = system: Echinochloa crus-galli var. formosensis; experiment: Test Example 6: herbicidal effect test by application during growth period of paddy rice (low dose); details: Echinochloa crus-galli; 7.5 g per 10 ares; applied seven days after sowing, flooded pots; 14 days after application; read-out: weed inhibition rate
Summary of the method: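 Low-dose water application, 7.5 g a.i. per 10 ares, given by dropper into flooded pots (about 3 cm depth) 7 days after sowing of 30 weed seeds each at 0–1 cm. Evaluation of inhibition (%) took place 14 days later, duplicate per rate.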

[3] = system: Echinochloa crus-galli; experiment: Test Example 8: herbicidal effect test by stem and leaf treatment in upland field (low dose); details: Echinochloa crus-galli; 7.5 g per 10 ares; sprayed seven days after sowing, upland soil; 14 days after application; read-out: weed inhibition rate
[4] = system: Digitaria ciliaris; experiment: as above; details: Digitaria ciliaris; 7.5 g per 10 ares; sprayed seven days after sowing, upland soil; 14 days after application; read-out: weed inhibition rate
[5] = system: Echinochloa crus-galli; experiment: Test Example 3: herbicidal effect test by soil application in upland field; details: Echinochloa crus-galli, 120 g per 10 ares, sprayed one day after sowing, 14 days after application, read-out: weed inhibition rate
Summary of the method: (§1)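 Pre-emergence test: seeds mixed into top 1 cm of alluvial loam upland soil in pots; emulsifiable concentrate diluted in water sprayed on soil one day after sowing at 100 L/10 a, 120 g a.i./10 a. Weed inhibition rate (%) scored at 14 days, in duplicate.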

[6] = system: Digitaria ciliaris; experiment: as above; details: Digitaria ciliaris, 120 g per 10 ares, sprayed one day after sowing, 14 days after application, read-out: weed inhibition rate
Summary of the method: as §1

[7] = system: Echinochloa crus-galli; experiment: Test Example 7: herbicidal effect test by soil application in upland field (low dose); details: Echinochloa crus-galli, 7.5 g per 10 ares, sprayed one day after sowing, 14 days after application, read-out: weed inhibition rate
Summary of the method: (§2)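 Pre-emergence soil treatment: 7.5 g a.i. per 10 a applied as water-diluted emulsifiable concentrate (100 L/10 a) to soil surface one day post-sowing in alluvial loam. Inhibition (%) assessed at 14 days, duplicate pots per concentration.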

[8] = system: Digitaria ciliaris; experiment: as above; details: Digitaria ciliaris, 7.5 g per 10 ares, sprayed one day after sowing, 14 days after application, read-out: weed inhibition rate
Summary of the method: as §2

[9] = system: Scirpus juncoides; experiment: Test Example 2: herbicidal effect test by application during growth period of paddy rice; details: Schoenoplectiella juncoides; 120 g per 10 ares; applied seven days after sowing, flooded pots; 14 days after application; read-out: weed inhibition rate
Summary of the method: (§3)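 Herbicidal effect was scored 14 days after treatment, in duplicate per concentration. Weeds sown 0–1 cm deep in puddled, fertilized paddy soil under about 3 cm of standing water received a water-diluted emulsifiable concentrate by dropper 7 days post-sowing, at 120 g a.i. per 10 ares.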

[10] = system: Echinochloa crus-galli var. formosensis; experiment: as above; details: Echinochloa crus-galli; 120 g per 10 ares; applied seven days after sowing, flooded pots; 14 days after application; read-out: weed inhibition rate
Summary of the method: as §3

[11] = system: Echinochloa crus-galli; experiment: Test Example 4: herbicidal effect test by stem and leaf treatment in upland field; details: Echinochloa crus-galli; 120 g per 10 ares; sprayed seven days after sowing, upland soil; 14 days after application; read-out: weed inhibition rate
[12] = system: Digitaria ciliaris; experiment: as above; details: Digitaria ciliaris; 120 g per 10 ares; sprayed seven days after sowing, upland soil; 14 days after application; read-out: weed inhibition rate
[13] = system: Scirpus juncoides; experiment: Test Example 1: herbicidal effect test by soil application in paddy rice; details: Schoenoplectiella juncoides, soil, 336 h; 120 g active ingredient per 10 ares; applied immediately after sowing, flooded pots; 14 days after application; read-out: weed inhibition rate
Summary of the method: (§4)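 Soil-applied test under flooded paddy conditions (~3 cm water) in a glass greenhouse. Seeds were sown shallow (0–1 cm, 30 per species), then compound was dripped in as diluted emulsifiable concentrate at 120 g a.i./10 a.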

[14] = system: Echinochloa crus-galli var. formosensis; experiment: as above; details: Echinochloa crus-galli, soil, 336 h; 120 g active ingredient per 10 ares; applied immediately after sowing, flooded pots; 14 days after application; read-out: weed inhibition rate
Summary of the method: as §4

CC(C)C12CC(OCc3cccs3)C(C)(CC1I)O2 (centres unmarked) [1-1456, 2-iodo-1-isopropyl-4-methyl-5-(2-thienylmethoxy)-7-oxabicyclo[2.2.1]heptane]
≥ 80%: inhibition at 75 g/ha [1] | inhibition at 75 g/ha [2] | inhibition at 75 g/ha [3] | inhibition at 75 g/ha [4] | inhibition at 1200 g/ha [5] | inhibition at 1200 g/ha [6] | inhibition at 75 g/ha [7] | inhibition at 75 g/ha [8] | inhibition at 1200 g/ha [9] | inhibition at 1200 g/ha [10] | inhibition at 1200 g/ha [11] | inhibition at 1200 g/ha [12] | pest or weed control at 1200 g/ha [13] | pest or weed control at 1200 g/ha [14]

CC(C)C12CC(OCc3ccsc3)C(C)(CC1I)O2 (centres unmarked) [1-1457, 2-iodo-1-isopropyl-4-methyl-5-(3-thienylmethoxy)-7-oxabicyclo[2.2.1]heptane]
≥ 80%: inhibition at 75 g/ha [1] | inhibition at 75 g/ha [2] | inhibition at 75 g/ha [3] | inhibition at 75 g/ha [4] | inhibition at 1200 g/ha [5] | inhibition at 1200 g/ha [6] | inhibition at 75 g/ha [7] | inhibition at 75 g/ha [8] | inhibition at 1200 g/ha [9] | inhibition at 1200 g/ha [10] | inhibition at 1200 g/ha [11] | inhibition at 1200 g/ha [12] | pest or weed control at 1200 g/ha [13] | pest or weed control at 1200 g/ha [14]

Cc1cccc(C)c1COC1CC2(C(C)C)OC1(C)CC2Cl (centres unmarked) [1-1610, 5-chloro-2-[(2,6-dimethylphenyl)methoxy]-1-methyl-4-isopropyl-7-oxabicyclo[2.2.1]heptane]
≥ 80%: inhibition at 75 g/ha [1] | inhibition at 75 g/ha [2] | inhibition at 75 g/ha [3] | inhibition at 75 g/ha [4] | inhibition at 1200 g/ha [5] | inhibition at 1200 g/ha [6] | inhibition at 75 g/ha [7] | inhibition at 75 g/ha [8] | inhibition at 1200 g/ha [9] | inhibition at 1200 g/ha [10] | inhibition at 1200 g/ha [11] | inhibition at 1200 g/ha [12] | pest or weed control at 1200 g/ha [13] | pest or weed control at 1200 g/ha [14]

CC(C)C12CC(OCc3c(F)cccc3Br)C(C)(CC1Cl)O2 (centres unmarked) [1-1611, 2-[(2-bromo-6-fluorophenyl)methoxy]-5-chloro-1-methyl-4-isopropyl-7-oxabicyclo[2.2.1]heptane]
≥ 80%: inhibition at 75 g/ha [1] | inhibition at 75 g/ha [2] | inhibition at 75 g/ha [3] | inhibition at 75 g/ha [4] | inhibition at 1200 g/ha [5] | inhibition at 1200 g/ha [6] | inhibition at 75 g/ha [7] | inhibition at 75 g/ha [8] | inhibition at 1200 g/ha [9] | inhibition at 1200 g/ha [10] | inhibition at 1200 g/ha [11] | inhibition at 1200 g/ha [12] | pest or weed control at 1200 g/ha [13] | pest or weed control at 1200 g/ha [14]
